Experimental data reported in ChEMBL document CHEMBL1201862, “PubChem BioAssay data set” (2004).
Calls of active or inactive are those of the source.

Tests used:
Cytochrome P450 3A4 = Cytochrome P450 3A4 (Homo sapiens, UniProt P08684);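 note: CYP3A4 tested as one member of a cytochrome P450 panel screen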
Cytochrome P450 1A2 = target: T1, Cytochrome P450 1A2 (Homo sapiens, UniProt P05177);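 note: PubChem cytochrome P450 panel assay, CYP1A2 panel member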
T1 sequence (P05177 whole entry): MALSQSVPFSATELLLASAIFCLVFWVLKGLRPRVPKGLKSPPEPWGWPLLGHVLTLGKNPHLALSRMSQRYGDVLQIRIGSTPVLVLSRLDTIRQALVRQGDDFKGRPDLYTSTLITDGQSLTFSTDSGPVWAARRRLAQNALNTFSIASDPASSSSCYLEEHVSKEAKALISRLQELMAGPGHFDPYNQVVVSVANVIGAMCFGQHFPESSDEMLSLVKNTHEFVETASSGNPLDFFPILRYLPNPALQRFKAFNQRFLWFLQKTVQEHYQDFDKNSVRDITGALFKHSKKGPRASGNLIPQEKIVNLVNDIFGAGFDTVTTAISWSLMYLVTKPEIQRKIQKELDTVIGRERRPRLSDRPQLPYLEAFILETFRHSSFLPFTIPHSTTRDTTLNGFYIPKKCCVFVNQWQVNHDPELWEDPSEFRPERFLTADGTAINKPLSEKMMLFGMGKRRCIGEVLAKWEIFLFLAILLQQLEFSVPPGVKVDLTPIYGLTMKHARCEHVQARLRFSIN

[1] = target: T2, Rac GTPase-activating protein 1 (Homo sapiens, UniProt Q9H0H5); experiment: blockers of MgcRacGAP-driven Rac1 GTP hydrolysis – biochemical, ADP Hunter fluorescence, primary and confirmatory, confirmation (AID 624330); format: functional
T2 sequence (Q9H0H5 whole entry): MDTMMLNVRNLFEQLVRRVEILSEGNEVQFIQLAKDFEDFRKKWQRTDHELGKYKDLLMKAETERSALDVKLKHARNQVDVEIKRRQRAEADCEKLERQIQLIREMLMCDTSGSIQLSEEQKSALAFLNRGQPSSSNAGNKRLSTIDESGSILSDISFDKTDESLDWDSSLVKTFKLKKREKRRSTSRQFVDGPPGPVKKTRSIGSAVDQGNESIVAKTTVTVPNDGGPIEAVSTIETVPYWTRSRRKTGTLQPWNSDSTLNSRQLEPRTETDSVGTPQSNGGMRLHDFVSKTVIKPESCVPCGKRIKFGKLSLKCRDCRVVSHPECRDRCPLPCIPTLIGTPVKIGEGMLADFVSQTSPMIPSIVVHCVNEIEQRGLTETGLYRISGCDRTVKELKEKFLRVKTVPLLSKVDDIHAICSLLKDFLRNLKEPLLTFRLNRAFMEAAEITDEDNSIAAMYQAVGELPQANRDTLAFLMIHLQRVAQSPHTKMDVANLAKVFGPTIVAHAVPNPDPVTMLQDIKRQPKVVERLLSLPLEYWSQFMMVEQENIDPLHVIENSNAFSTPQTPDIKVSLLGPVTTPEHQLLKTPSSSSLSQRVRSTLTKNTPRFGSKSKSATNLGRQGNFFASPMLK

Cytochrome P450 2C19 = Cytochrome P450 2C19 (Homo sapiens, UniProt P33261); experiment: Cytochrome panel assay with activity outcomes. Panel member name: p450-cyp2c19 Compounds with AC50 equal or less than 10 uM are considered active; format: functional
Cytochrome P450 2C19, sequence (P33261 whole entry): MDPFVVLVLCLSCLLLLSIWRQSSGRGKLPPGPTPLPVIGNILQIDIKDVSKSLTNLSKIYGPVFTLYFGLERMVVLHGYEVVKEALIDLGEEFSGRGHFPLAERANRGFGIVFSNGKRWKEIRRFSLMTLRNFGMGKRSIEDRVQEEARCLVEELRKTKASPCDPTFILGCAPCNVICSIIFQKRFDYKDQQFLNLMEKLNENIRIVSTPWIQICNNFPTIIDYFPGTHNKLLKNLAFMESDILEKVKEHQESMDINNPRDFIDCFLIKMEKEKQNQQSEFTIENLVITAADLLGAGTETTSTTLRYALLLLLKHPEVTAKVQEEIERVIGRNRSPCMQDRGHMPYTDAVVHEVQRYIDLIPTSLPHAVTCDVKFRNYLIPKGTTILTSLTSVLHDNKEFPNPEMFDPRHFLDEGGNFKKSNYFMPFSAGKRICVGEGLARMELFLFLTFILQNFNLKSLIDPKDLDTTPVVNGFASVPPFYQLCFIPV

[2] = NIH3T3 cell viability loss – ATP luminescence, mouse fibroblasts, counter-screen, dose response (AID 2010); format: functional, cell-based;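 note: cells exposed to compound for about 90 hours before reading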
[3] = Trypanosoma cruzi growth suppression in host cells – NIH3T3 host cells, beta-gal luminescence, confirmation (AID 2044); format: functional, cell-based;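 note: intracellular parasites grown in NIH/3T3 mouse fibroblasts as host cells; luminescent beta-galactosidase reporter signal from transgenic T. cruzi replicating inside host cells; inhibitors lower the luminescence signal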

Cytochrome P450 3A4, sequence (P08684 whole entry): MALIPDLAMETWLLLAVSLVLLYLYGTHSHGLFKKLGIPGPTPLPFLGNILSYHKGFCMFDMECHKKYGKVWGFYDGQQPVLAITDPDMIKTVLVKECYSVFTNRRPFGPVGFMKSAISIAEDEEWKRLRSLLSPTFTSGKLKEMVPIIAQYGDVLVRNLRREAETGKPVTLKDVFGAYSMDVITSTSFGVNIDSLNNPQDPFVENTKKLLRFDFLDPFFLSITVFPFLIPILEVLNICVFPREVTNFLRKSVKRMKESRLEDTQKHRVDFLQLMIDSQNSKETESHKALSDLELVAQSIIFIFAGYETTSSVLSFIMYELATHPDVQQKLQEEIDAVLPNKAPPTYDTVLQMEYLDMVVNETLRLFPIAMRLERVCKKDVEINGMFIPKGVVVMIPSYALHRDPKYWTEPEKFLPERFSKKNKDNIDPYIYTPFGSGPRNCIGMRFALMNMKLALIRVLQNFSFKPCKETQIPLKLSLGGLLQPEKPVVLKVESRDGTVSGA

Row | Compound | AC50 (Cytochrome P450 3A4) | AC50 (Cytochrome P450 1A2) | IC50 [1] | further results
1 | Cc1cc(C)c(S(=O)(=O)N2CCN(c3ccc([N+](=O)[O-])c(NCC4CCCO4)c3)CC2)c(C)c1 (stereo unspecified) | 3.55 µM (inconclusive) |  |  | 
2 | CC1CCC(NC(=O)CC(C)(C)Cc2nc(O)c3ccccc3n2)CC1 (stereo unspecified) |  | 22.4 µM (inconclusive) |  | 
3 | OC(Cc1nc2ccccc2[nH]1)c1ccccc1Cl (stereo unspecified) |  | 25.1 µM (inconclusive) |  | 
4 | Cn1c(=O)c(-c2ccccc2)nc2cncnc21 | 12.6 µM (inconclusive) |  |  | 
5 | O=C(Nc1cccn(Cc2c(Cl)cccc2Cl)c1=O)c1ccc(Cl)cc1Cl | 14.1 µM (inconclusive) | 2.82 µM (inconclusive) |  | 
6 | CC(C)(C)c1nc(SCC(=O)Nc2ccc3c(c2)OCCO3)c2ccccc2n1 |  | 10 µM (inconclusive) |  | 
7 | CC(=O)c1cc(CC=C(C)C)c(O)cc1O | 1.41 µM (inconclusive) |  |  | 
8 | COc1ccccc1CNc1ncncc1-c1cccc(C#N)c1 | 0.316 µM (inconclusive) |  |  | 
9 | O=C(Nc1ccc(Cl)cc1)OCCn1nnnc1C(c1ccccc1Cl)N1CCOCC1 (stereo unspecified) | 0.891 µM (inconclusive) |  |  | 
10 | O=C(Cc1coc2cc(O)ccc12)NNC(=O)c1ccc(Br)s1 |  |  | 31.8 µM (active) | 
11 | COc1cc(OC)c(C2C(C(=O)O)c3ccccc3C(=O)N2C)cc1OC (stereo unspecified) | 0.355 µM (inconclusive) | 31.6 µM (inconclusive) |  | 
12 | O=C(c1cccc(F)c1)N1CCC2(CCCN(c3ccc(-c4ccccc4)cc3)C2)CC1 | 12.6 µM (inconclusive) |  |  | AC50 (Cytochrome P450 2C19; read-out: AC50): 20 µM (inconclusive)
13 | N#C/C(=C\c1cccnc1)C(=O)Nc1cccc2ccccc12 |  |  | 157 µM (active) | 
14 | COc1ccc(NC(=O)N2CC3(CCN(C(=O)c4ccc(OC)cc4)CC3)C2)cc1 | 25.1 µM (inconclusive) |  |  | 
15 | COc1cc(/C=N/NC(=O)CCN2CCN(C(c3ccccc3)c3ccccc3)CC2)ccc1O |  |  | 50.9 µM (active) | 
16 | C=CCc1cc(Cl)ccc1OCCNCCN1CCOCC1 |  |  | 90.8 µM (active) | EC50 [2]: > 60 µM (not active); EC50 [3]: 136 nM (active)
17 | Brc1cccc(CNCCc2ccc3c(c2)OCO3)c1 |  |  | 179 µM (active) | 
18 | CN1C[C@@H](CS(=O)(=O)N(C)C)C[C@H]2c3cccc4c3c(cn4C)C[C@@H]21 |  | 25.1 µM (inconclusive) |  | 
19 | Cc1cc(/C=C(\C#N)C(=O)N2CCCCC2)cc(C)c1O |  |  | 59.4 µM (active) | 
20 | Cc1noc(C)c1C(=O)N1CCC2(CCCN(C(=O)Nc3cccc(F)c3)C2)CC1 | 15.8 µM (inconclusive) | 15.8 µM (inconclusive) |  | 
21 | COCCn1c(=O)c(-c2cccc(F)c2)nc2cncnc21 | 15.8 µM (inconclusive) |  |  | AC50 (Cytochrome P450 2C19; read-out: AC50): 39.8 µM (inconclusive)
22 | CCN(CC)c1ccc(NC(=O)CN2C(=O)NC3(CCc4ccccc43)C2=O)cc1 (stereo unspecified) |  |  | 89.8 µM (active) | 

Row | Compound | AC50 (Cytochrome P450 3A4) | AC50 (Cytochrome P450 1A2) | IC50 [1] | further results
23 | Cc1noc(C)c1-c1cncnc1NCc1ccccc1 |  | 25.1 µM (inconclusive) |  | 
24 | COc1cc(/C=C/C(=O)OCC(=O)NCCCc2ccccc2)ccc1O |  |  | 41.5 µM (active) | 
25 | COc1ccc(NC(=O)c2ccc(-c3ccc(-c4noc(C)n4)cc3C)cc2)cc1OCCN(C)C | 15.8 µM (inconclusive) | 39.8 µM (inconclusive) |  | 
26 | CNC(=O)[C@@H]1O[C@@H](n2cnc3c(NCc4ccc(N)cc4)ncnc32)[C@@H](O)[C@H]1O | 25.1 µM (inconclusive) |  |  | 
27 | O=C1Nc2ccccc2C2=N[C@@H](CN3CCN(c4ccccc4)CC3)CN12 |  | 20 µM (inconclusive) |  | 
28 | CCc1cc(/C(Cc2cscn2)=N\O)c(O)cc1O |  |  | 52 µM (active) | 
29 | Cc1cccc2nc(C(F)(F)F)nc(=O)n12 |  | 0.0316 µM (inconclusive) |  | AC50 (Cytochrome P450 2C19; read-out: AC50): 28.2 µM (inconclusive)
30 | Cc1ccc(C)c(NC(=N)Nc2nc(C)cc(C)n2)c1 |  | 14.1 µM (inconclusive) |  | EC50 [2]: > 60 µM (inconclusive); EC50 [3]: 1200 nM (active); AC50 (Cytochrome P450 2C19): inconclusive
31 | COc1ccc(N2CCN(CC(=O)Nc3cccc(S(=O)(=O)N4CCOCC4)c3)CC2)cc1 |  |  | 77.5 µM (active) | 
32 | CC(C)N1C(=O)/C(=C\c2c[nH]c3ccccc23)S/C1=N\c1ccccc1 | 22.4 µM (inconclusive) | 4.47 µM (inconclusive) |  | AC50 (Cytochrome P450 2C19; read-out: AC50): 2 µM (inconclusive)
33 | O=C(CCc1ccc(O)c(O)c1)N/N=C/c1ccc2c(c1)OCO2 |  |  | 91.7 µM (active) | 
34 | CSc1nc(C)c2c(n1)N(c1ccc(O)cc1)CC2 |  |  | 16.8 µM (active) | 
35 | CCC(CC)N1CCN(C(=O)c2cccc(Cl)c2)CC1 |  |  | 193 µM (active) | 
36 | Cc1cccc(-n2nnc3cnn(C)c3c2=O)c1 | 31.6 µM (inconclusive) | 12.6 µM (inconclusive) |  | 
37 | CCCc1ccc(-c2cc(C(=O)NN3CCOCC3)c3ccccc3n2)cc1 | 12.6 µM (inconclusive) |  |  | AC50 (Cytochrome P450 2C19; read-out: AC50): 15.8 µM (inconclusive)
38 | CCN1CCN(CCCCOc2ccccc2F)CC1 |  |  | 70.1 µM (active) | 
39 | COc1ccc(NCc2cccnc2)cc1 |  |  | 53.1 µM (active) | 
40 | S=C=Nc1cccc(C2(N3CCCCC3)CCCCC2)c1 |  | 31.6 µM (inconclusive) |  | 
41 | CC[C@](N)(CCC(=O)O)C(=O)O |  | 20 µM (inconclusive) |  | 
42 | O=C(c1cnccn1)N1CCC2(CC1)CN(c1cccc(-c3ccccc3)c1)C2 | 39.8 µM (inconclusive) | 15.8 µM (inconclusive) |  | 
43 | Nc1c2c(=O)oc(-c3ccccc3)cc2nn1-c1ccccc1 | 25.1 µM (inconclusive) |  |  | 
44 | O=C(O)CN1C(=O)CN=C(c2ccccn2)c2cc(Cl)ccc21 |  | 1.26 µM (inconclusive) |  | 

Row | Compound | AC50 (Cytochrome P450 3A4) | AC50 (Cytochrome P450 1A2) | IC50 [1] | further results
45 | CN(Cc1ccco1)c1ncnc2ccc(-c3ccccc3C#N)cc12 | 31.6 µM (inconclusive) |  |  | 
46 | COc1ccc(Oc2ncc3nc(CCc4ccccc4)c(=O)n(CCC#N)c3n2)cc1 |  | 6.31 µM (inconclusive) |  | 
47 | CC[C@]1(O)C[C@@H]2CN(CCc3c([nH]c4ccccc34)[C@](C(=O)OC)(c3cc4c(cc3OC)N(C=O)[C@H]3[C@@](O)(C(=O)OC)[C@H](C(=O)OC)[C@@]5(CC)C=CCN6CC[C@]43[C@H]65)C2)C1 | 25.1 µM (inconclusive) |  |  | 
48 | O=c1oc2ccccc2c(O)c1Cc1c(O)c2ccccc2oc1=O [DICUMAROL] |  | 12.6 µM (inconclusive) |  | AC50 (Cytochrome P450 2C19; read-out: AC50): 10 µM (inconclusive)
49 | CC(=O)NCCNc1nc(-c2ccccc2C(F)(F)F)nc2ccccc12 | 12.6 µM (inconclusive) |  |  | 
50 | Cc1cc(C)c(C)c(OCCNCc2ccccc2)c1 |  |  | 105 µM (active) | 
51 | Cc1c(NC(=O)NC(C)N2C(=O)C3C4C=CC(C4)C3C2=O)c(=O)n(-c2ccccc2)n1C (stereo unspecified) | 25.1 µM (inconclusive) |  |  | 
52 | CC(C)(C)C(=O)N(CCN(C(=O)C(C)(C)C)c1ccccc1)c1ccccc1 | 7.08 µM (inconclusive) |  |  | AC50 (Cytochrome P450 2C19; read-out: AC50): 8.91 µM (inconclusive)
53 | CCN1CCN(C(C)C(=O)NC2CCCCC2)CC1 (stereo unspecified) |  |  | 75.6 µM (active) | 
54 | COc1cc(/C=C/C(=O)N[C@@H](Cc2c[nH]c3ccccc23)C(=O)O)ccc1O |  |  | 80 µM (active) | 
55 | COc1ncc2ncc(=O)n(CCC#N)c2n1 |  | 20 µM (inconclusive) |  | 
56 | COC(=O)[C@@]1(Cc2ccc(OC)cc2)[C@H]2c3cc(C(=O)N4CCCC4)n(CCc4c[nH]c5ccc(OC)cc45)c3C[C@H]2CN1C(=O)c1ccccc1 |  | 10 µM (inconclusive) |  | 
57 | CN1CCCC2(CCN(C(=O)c3cc(C(F)(F)F)cc(C(F)(F)F)c3)CC2)C1 | 25.1 µM (inconclusive) |  |  | AC50 (Cytochrome P450 2C19; read-out: AC50): 25.1 µM (inconclusive)
58 | CCOc1cc(/C=C2/NC(=O)N(Cc3ccccc3F)C2=O)ccc1O |  |  | 44.5 µM (active) | 
59 | COc1ccc(-c2nc3cnc(OC)nc3n(-c3ccc(OC)cc3)c2=O)cc1 | 15.8 µM (inconclusive) | 0.316 µM (inconclusive) |  | 
60 | COc1ccccc1N1CCN(/N=C/c2cc(OC)c(O)c(OC)c2)CC1 |  |  | 252 µM (active) | 
61 | O=C1CCCC=C1[C@@H](O)COCc1ccccc1 | 3.16 µM (inconclusive) |  |  | 
62 | O=C(CC(c1ccccc1)c1ccccc1)Nc1ccc(O)cc1 |  |  | 47.2 µM (active) | 
63 | O=C1[C@H]2[C@H]3[C@H](O)[C@H](O)C/C(=N/OC[C@@H](O)COCc4ccco4)[C@@H]3CC[C@@H]2C(=O)N1C1CCCCC1 | 5.01 µM (inconclusive) |  |  | 
64 | CC(C)NCC#CCOc1ccc(Cl)cc1 |  |  | 162 µM (active) | 
65 | CCOc1ccc(OCCOCCN2CCCC2)cc1 |  |  | 109 µM (active) | 
